Measurements as given in US8415356B2, “Isoquinolinone derivatives as NK3 antagonists” (H. Lundbeck A/S, priority 2008, dated 2013).

Test system: not given
Assay: not given
Conditions: versus placebo; delusions, hallucinations and paranoia; cited from earlier work

Structure (SMILES) | effect in clinical trials, in particular on positive symptoms of psychosis
CC(=O)N(C)C1(c2ccccc2)CCN(CCC[C@]2(c3ccc(Cl)c(Cl)c3)CCCN(C(=O)c3ccccc3)C2)CC1 [Osanetant, osanetant] | superior to placebo

Target: T1, human NK3 receptor (Homo sapiens, UniProt P29371)
T1 construct: expressed in transfected cells; membranes prepared from them
T1 sequence (P29371 1-465): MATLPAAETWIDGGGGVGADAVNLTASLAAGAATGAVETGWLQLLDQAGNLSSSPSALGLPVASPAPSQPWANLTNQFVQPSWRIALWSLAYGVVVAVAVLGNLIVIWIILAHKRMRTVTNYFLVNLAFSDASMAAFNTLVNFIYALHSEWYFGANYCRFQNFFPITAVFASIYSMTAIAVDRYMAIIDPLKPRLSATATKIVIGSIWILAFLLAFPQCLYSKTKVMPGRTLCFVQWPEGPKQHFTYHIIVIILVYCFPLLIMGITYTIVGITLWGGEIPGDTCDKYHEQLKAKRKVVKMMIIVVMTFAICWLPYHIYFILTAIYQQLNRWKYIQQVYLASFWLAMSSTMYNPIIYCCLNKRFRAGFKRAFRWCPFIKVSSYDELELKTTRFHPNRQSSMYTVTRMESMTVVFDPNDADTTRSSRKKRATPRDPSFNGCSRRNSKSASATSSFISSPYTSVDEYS
Assay: NK3 receptor binding assay (SPA-based competition binding with 125I-NKB)
Conditions: read-out: Affinity Ki/nM
Experimental: Membrane preparation: BHK cells stably expressing the human NK3 receptor were seeded in harvesting plates in Dulbeccos MEM containing GlutaMax (862 mg/l), 1 mM sodium pyruvate, 10% fetal calf serum, 1% Pen/Strep, 1 mg/ml G418 and were grown at 34° C. in a humidified atmosphere containing 10% CO2. To increase receptor expression, 10 μM trichotatin A was added to the media 24 hours before harvest of the cells at a confluency of app 90%. Prior to the harvesting, the cells were washed twice with PBS without Mg^2+ og Ca^2+ and subsequently scrapped of in 10 ml PBS pr harvesting plate. The cells suspension were centrifuged at 1500×G in three minutes before resuspension in 15 mM Tris-HCl pH 7.5 buffer containing 2 mM MgCl2; 0.3 mM EDTA and 1 mM EGTA (buffer A). The cell suspention was homogenised and subsequently centrifuged at 40000×G in 30 minutes. The membrane-pellet was resuspended in buffer A containing 250 mM sucrose, aliquoted and stored at −80° C.
Affinity assay description: The assay was performed as a SPA-based competition-binding assay in a 50 mM Tris pH 7.4 assay buffer containing 120 mM NaCl, 3 mM MnCl2, 40 μg/ml bacitracin, 2 μg/ml Chymostatin, 1 μg/ml Phosphoramidon and 4 μg/ml Leupeptin. […] The assay plate was subsequently under agitation incubated for 90 min at RT. The plate was centrifugated 10 minutes at 500×G and counted in a topcounter 5 minutes pr well.

Ki [nM] | Structure (SMILES)
13 | CC(C)(C)N1CCN(Cc2c(C(=O)N[C@H](c3cccc(F)c3)C3CC3)c3cccc(F)c3c(=O)n2-c2cccnc2)CC1 [6a, 3-(4-tert-Butyl-piperazin-1-ylmethyl)-8-fluoro-1-oxo-2-pyridin-3-yl-1,2-dihydro-isoquinoline-4-carboxylic acid [(S)-cyclopropyl-(3-fluoro-phenyl)-methyl]-amide]
110 | O=C(N[C@H](c1cccc(F)c1)C1CC1)c1c(CN2CCCC2=O)n(-c2cccnc2)c(=O)c2c(F)cccc12 [6b, 8-Fluoro-1-oxo-3-(2-oxo-pyrrolidin-1-ylmethyl)-2-pyridin-3-yl-1,2-dihydro-isoquinoline-4-carboxylic acid [(S)-cyclopropyl-(3-fluoro-phenyl)-methyl]-amide]
15 | Cc1c(C(=O)N[C@H](c2cccc(F)c2)C2CCC2)c2cc(F)cc(F)c2c(=O)n1-c1cccnc1 [7c, 6,8-Difluoro-3-methyl-1-oxo-2-pyridin-3-yl-1,2-dihydro-isoquinoline-4-carboxylic acid [(S)-cyclobutyl-(3-fluoro-phenyl)-methyl]-amide]
33 | Cc1c(C(=O)N[C@H](c2cccc(F)c2)C2CC2)c2cccc(O)c2c(=O)n1-c1cccnc1 [8a, 8-Hydroxy-3-methyl-1-oxo-2-pyridin-3-yl-1,2-dihydro-isoquinoline-4-carboxylic acid [(S)-cyclopropyl-(3-fluoro-phenyl)-methyl]-amide]

Continued, compound first:

Structure (SMILES) | Ki [nM]
Cc1c(C(=O)N[C@H](c2cccc(F)c2)C2CC2)c2cccc(F)c2c(=O)n1-n1cccc1 [2ac, 8-Fluoro-3-methyl-1-oxo-2-pyrrol-1-yl-1,2-dihydro-isoquinoline-4-carboxylic acid [(S)-cyclopropyl-(3-fluoro-phenyl)-methyl]-amide] | 96
Cc1c(C(=O)N[C@H](c2cccc(F)c2)C2CC2)c2cccc(F)c2c(=O)n1-c1ccccn1 [2b, 8-Fluoro-3-methyl-1-oxo-2-pyridin-2-yl-1,2-dihydro-isoquinoline-4-carboxylic acid [(S)-cyclopropyl-(3-fluoro-phenyl)-methyl]-amide] | 150
Cc1c(C(=O)N[C@H](c2cccc(F)c2)C2CC2)c2cccc(F)c2c(=O)n1-c1ccc(Cl)nc1 [2d, 2-(6-Chloro-pyridin-3-yl)-8-fluoro-3-methyl-1-oxo-1,2-dihydro-isoquinoline-4-carboxylic acid [(S)-cyclopropyl-(3-fluoro-phenyl)-methyl]-amide] | 120
Cc1c(C(=O)N[C@H](c2cccc(F)c2)C2CC2)c2cccc(F)c2c(=O)n1-c1cncnc1 [2k, 8-Fluoro-3-methyl-1-oxo-2-pyrimidin-5-yl-1,2-dihydro-isoquinoline-4-carboxylic acid [(S)-cyclopropyl-(3-fluoro-phenyl)-methyl]-amide] | 110
Cc1ccc(-n2c(C)c(C(=O)N[C@H](c3cccc(F)c3)C3CC3)c3cccc(F)c3c2=O)cn1 [2l, 8-Fluoro-3-methyl-2-(6-methyl-pyridin-3-yl)-1-oxo-1,2-dihydro-isoquinoline-4-carboxylic acid [(S)-cyclopropyl-(3-fluoro-phenyl)-methyl]-amide] | 220
Cc1csc(-n2c(C)c(C(=O)N[C@H](c3cccc(F)c3)C3CC3)c3cccc(F)c3c2=O)n1 [2r, 8-Fluoro-3-methyl-2-(4-methyl-thiazol-2-yl)-1-oxo-1,2-dihydro-isoquinoline-4-carboxylic acid [(S)-cyclopropyl-(3-fluoro-phenyl)-methyl]-amide] | 150
Cc1c(C(=O)N[C@H](c2cccc(F)c2)C2CC2)c2cccc(F)c2c(=O)n1-n1cnnc1 [2u, 8-Fluoro-3-methyl-1-oxo-2-[1,2,4]triazol-4-yl-1,2-dihydro-isoquinoline-4-carboxylic acid [(S)-cyclopropyl-(3-fluoro-phenyl)-methyl]-amide] | 200
CCc1nnc(-n2c(C)c(C(=O)N[C@H](c3cccc(F)c3)C3CC3)c3cccc(F)c3c2=O)s1 [2v, 2-(5-Ethyl-[1,3,4]thiadiazol-2-yl)-8-fluoro-3-methyl-1-oxo-1,2-dihydro-isoquinoline-4-carboxylic acid [(S)-cyclopropyl-(3-fluoro-phenyl)-methyl]-amide] | 210
Cc1c(C(=O)N[C@H](c2cccc(F)c2)C2CCC2)c2cccc(F)c2c(=O)n1-c1ccn(C)n1 [3f, 8-Fluoro-3-methyl-2-(1-methyl-1H-pyrazol-3-yl)-1-oxo-1,2-dihydro-isoquinoline-4-carboxylic acid [(S)-cyclobutyl-(3-fluoro-phenyl)-methyl]-amide] | 71
Cc1c(C(=O)N[C@H](c2ccccc2)C2CCC2)c2cccc(F)c2c(=O)n1-c1cccnc1 [4a, 8-Fluoro-3-methyl-1-oxo-2-pyridin-3-yl-1,2-dihydro-isoquinoline-4-carboxylic acid ((S)-cyclobutyl-phenyl-methyl)-amide] | 18

Test system: not given
Assay: not given
Conditions: schizophrenics; cited from earlier work

Structure (SMILES) | effect in clinical trials on cognitive behaviour
CC[C@H](NC(=O)c1c(O)c(-c2ccccc2)nc2ccccc12)c1ccccc1 [talnetant] | ameliorate the cognitive behaviour
